# Measurements reported in patent US20250179047A1, “5-[7-(3,4-DIHYDRO-1H-ISOQUINOLINE-2-CARBONYL)-1,2,3,4 TETRAHYDROISOQUINOLIN-6-YL]-1H-PYRROLE-3-CARBOXAMIDE DERIVATIVES, PHARMACEUTICAL COMPOSITIONS CONTAINING THEM AND THEIR USES AS PRO-APOPTOTIC AGENTS” (LES LABORATOIRES SERVIER, priority 2022, published 2025).
# pKi: −log10 of the molar value.
# Tests used:
# BCL2 WT = BCL2 WT (Homo sapiens (Human), UniProt P10415); assay: TR-FRET competitive binding assay, BCL2 WT; conditions: Ki determined from IC50, read-out: TR_FRET EKI_Bcl2 WT
# Outline: (§1)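 Competitive TR-FRET displacement of fluorescein-PUMA peptide (2 or 20 nM) from 0.5 nM terbium-labelled N-terminal Halo-fusion BCL2 (1-207, wild type or mutant) or BCLXL (2-196), expressed in E. coli. Buffer 50 mM Hepes pH 7.5, 150 mM NaCl, 5% DMSO; 2 h at 23°C. 520/495 nm ratio fitted over 11 points for IC50, converted to Ki.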
# BCL2 G101V [1] = target: BCL2 G101V (Homo sapiens, UniProt P10415, G101V); assay: TR-FRET competitive binding assay, BCL2 G101V; conditions: BCL2 G101V; Ki determined from IC50; read-out: TR_FRET EKI_Bcl2 G101V
# Outline: as §1
# BCL2 G101V [2] = assay: TR-FRET competitive binding assay, BCL2 G101V; design: species or system human; conditions: ratio Ki BCL2 G101V / Ki BCL2 WT
# Outline: as §1
# BCL2 D103Y = BCL2 D103Y (Homo sapiens, UniProt P10415, D103Y); assay: TR-FRET competitive binding assay, BCL2 D103Y; conditions: Ki determined from IC50, read-out: TR_FRET EKI_Bcl2 D103Y
# Outline: as §1
# BCLXL WT = BCLXL WT (Homo sapiens (Human), UniProt Q07817); assay: TR-FRET competitive binding assay, BCLXL WT; conditions: for pKi: BCLXL WT, Ki determined from IC50, read-out: TR_FRET EKI BclxL; for TR_FRET EKI BCLxL/WT selectivty ratio: ratio Ki BCLxL / Ki BCL2 WT
# Outline: as §1
# KMS-12-PE Bcl-2 WT = assay: In vitro cytotoxicity CellTiter-Glo 48 h, KMS-12-PE Bcl-2 WT; assay type: cell-based; conditions: Homo sapiens, KMS-12-PE, C50 = concentration needed to reach 50% of the cellular viability
# Outline: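 KMS-12-PE myeloma cells were lentivirally transduced with wild-type or G101V-mutant Bcl-2 and sorted by TagRFP. They were exposed to compounds as 11-point dose responses for 48 h at 37 °C, 5% CO2. Viability was read by CellTiter-Glo ATP luminescence, and C50 was the concentration giving 50% viability.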
# Chain of BCLXL WT (Q07817 other isoform, or with tags, fused parts or gaps): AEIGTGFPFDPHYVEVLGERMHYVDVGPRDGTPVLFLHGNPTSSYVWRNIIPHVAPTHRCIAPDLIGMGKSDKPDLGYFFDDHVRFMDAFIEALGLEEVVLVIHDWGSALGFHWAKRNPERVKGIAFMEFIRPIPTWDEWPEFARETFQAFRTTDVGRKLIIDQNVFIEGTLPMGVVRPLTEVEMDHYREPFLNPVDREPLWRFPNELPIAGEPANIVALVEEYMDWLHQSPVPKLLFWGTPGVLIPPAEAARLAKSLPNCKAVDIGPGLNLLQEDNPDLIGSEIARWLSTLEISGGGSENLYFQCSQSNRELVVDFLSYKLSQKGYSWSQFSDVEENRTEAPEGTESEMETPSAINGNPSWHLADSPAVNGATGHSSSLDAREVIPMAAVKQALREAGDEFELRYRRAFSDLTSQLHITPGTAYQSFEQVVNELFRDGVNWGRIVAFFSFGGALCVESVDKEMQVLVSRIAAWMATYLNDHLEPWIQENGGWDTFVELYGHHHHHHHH
Compound,pKi (BCL2 WT),pKi (BCL2 G101V [1]),TR_FRET EKI G101V/WT selectivty ratio (BCL2 G101V [2]),pKi (BCL2 D103Y),pKi (BCLXL WT),TR_FRET EKI BCLxL/WT selectivty ratio (BCLXL WT),IC50 (KMS-12-PE Bcl-2 WT) [µM]
"COc1ccc(N(C(=O)c2cc(-c3cc4c(cc3C(=O)N3Cc5ccccc5C[C@H]3C)CN(C(=O)Cc3ccc(OCCN5CCOCC5)cc3F)CC4)n(C)c2C)c2ccccc2)cn1 [Example 192, 5-[2-[2-[2-fluoro-4-(2-morpholinoethoxy)phenyl]acetyl]-7-[(3R)-3-methyl-3,4-dihydro-1H-isoquinoline-2-carbonyl]-3,4-dihydro-1H-isoquinolin-6-yl]-N-(6-methoxy-3-pyridyl)-1,2-dimethyl-N-phenyl-pyrrole-3-carboxamide]",10.40,8.59,58.9,9.96,8.11,175.0,0.0083
"Cc1c(C(=O)N(c2ccccc2)c2cnn(C(F)F)c2)cc(-c2cc3c(cc2C(=O)N2Cc4ccccc4C[C@H]2C)CN(C(=O)Cc2ccc(OCCN4CCOCC4)cc2F)CC3)n1C [Example 193, N-[1-(difluoromethyl)pyrazol-4-yl]-5-[2-[2-[2-fluoro-4-(2-morpholinoethoxy)phenyl]acetyl]-7-[(3R)-3-methyl-3,4-dihydro-1H-isoquinoline-2-carbonyl]-3,4-dihydro-1H-isoquinolin-6-yl]-1,2-dimethyl-N-phenyl-pyrrole-3-carboxamide]",10.40,8.51,72.0,10.00,7.96,256.9,0.0062
"Cc1c(C(=O)N(c2ccccc2)c2cnc3c(cnn3C)c2)cc(-c2cc3c(cc2C(=O)N2Cc4ccccc4C[C@H]2C)CN(C(=O)Cc2ccc(OCCN4CCOCC4)cc2)CC3)n1C [Example 195, 1,2-dimethyl-5-[7-[(3R)-3-methyl-3,4-dihydro-1H-isoquinoline-2-carbonyl]-2-[2-[4-(2-morpholinoethoxy)phenyl]acetyl]-3,4-dihydro-1H-isoquinolin-6-yl]-N-(1-methylpyrazolo[3,4-b]pyridin-5-yl)-N-phenyl-pyrrole-3-carboxamide]",10.85,9.05,63.6,10.30,8.30,359.1,0.0041
"Cc1c(C(=O)N(c2ccc(F)cc2)c2cnn(C)c2)cc(-c2cc3c(cc2C(=O)N2Cc4ccccc4C[C@H]2C)CN(C(=O)Cc2ccc(OCCN4CCOCC4)cc2)CC3)n1C [Example 200, N-(4-fluorophenyl)-1,2-dimethyl-5-[7-[(3R)-3-methyl-3,4-dihydro-1H-isoquinoline-2-carbonyl]-2-[2-[4-(2-morpholinoethoxy)phenyl]acetyl]-3,4-dihydro-1H-isoquinolin-6-yl]-N-(1-methylpyrazol-4-yl)pyrrole-3-carboxamide]",10.22,8.26,88.0,9.82,7.59,419.8,0.0155
"Cc1ccc(N(C(=O)c2cc(-c3cc4c(cc3C(=O)N3Cc5ccccc5C[C@H]3C)CN(C(=O)Cc3ccc(OCCN5CCOCC5)cc3F)CC4)n(C)c2C)c2ccccc2)cc1C#N [Example 203, N-(3-cyano-4-methyl-phenyl)-5-[2-[2-[2-fluoro-4-(2-morpholinoethoxy)phenyl]acetyl]-7-[(3R)-3-methyl-3,4-dihydro-1H-isoquinoline-2-carbonyl]-3,4-dihydro-1H-isoquinolin-6-yl]-1,2-dimethyl-N-phenyl-pyrrole-3-carboxamide]",10.70,9.30,23.3,10.22,8.07,404.3,0.0091
"Cc1ccc(N(C(=O)c2cc(-c3cc4c(cc3C(=O)N3Cc5ccccc5C[C@H]3C)CN(C(=O)Cc3ccc(OCCN5CCOCC5)cc3)CC4)n(C)c2C)c2ccccc2)cc1C#N [Example 204, N-(3-cyano-4-methyl-phenyl)-1,2-dimethyl-5-[7-[(3R)-3-methyl-3,4-dihydro-1H-isoquinoline-2-carbonyl]-2-[2-[4-(2-morpholinoethoxy)phenyl]acetyl]-3,4-dihydro-1H-isoquinolin-6-yl]-N-phenyl-pyrrole-3-carboxamide]",10.22,8.72,30.8,9.77,8.02,152.4,0.0111

# Further lines, with some results ahead:
pKi (BCL2 WT),pKi (BCL2 G101V [1]),TR_FRET EKI G101V/WT selectivty ratio (BCL2 G101V [2]),pKi (BCL2 D103Y),pKi (BCLXL WT),TR_FRET EKI BCLxL/WT selectivty ratio (BCLXL WT),Compound,IC50 (KMS-12-PE Bcl-2 WT) [µM]
10.52,9.00,35.7,10.10,8.48,115.0,"Cc1c(C(=O)N(c2ccccc2)c2cnc3c(cnn3C)c2)cc(-c2cc3c(cc2C(=O)N2Cc4ccccc4C[C@H]2C)CN(C(=O)Cc2ccc(OCCN4CCOCC4)cc2F)CC3)n1C [Example 194, 5-[2-[2-[2-fluoro-4-(2-morpholinoethoxy)phenyl]acetyl]-7-[(3R)-3-methyl-3,4-dihydro-1H-isoquinoline-2-carbonyl]-3,4-dihydro-1H-isoquinolin-6-yl]-1,2-dimethyl-N-(1-methylpyrazolo[3,4-b]pyridin-5-yl)-N-phenyl-pyrrole-3-carboxamide]",0.0026
10.52,8.57,83.2,10.05,8.02,301.1,"COCCn1cc(N(C(=O)c2cc(-c3cc4c(cc3C(=O)N3Cc5ccccc5C[C@H]3C)CN(C(=O)Cc3ccc(OCCN5CCOCC5)cc3)CC4)n(C)c2C)c2ccccc2)cn1 [Example 196, N-[1-(2-methoxyethyl)pyrazol-4-yl]-1,2-dimethyl-5-[7-[(3R)-3-methyl-3,4-dihydro-1H-isoquinoline-2-carbonyl]-2-[2-[4-(2-morpholinoethoxy)phenyl]acetyl]-3,4-dihydro-1H-isoquinolin-6-yl]-N-phenyl-pyrrole-3-carboxamide]",0.0089
10.70,8.92,63.9,10.30,8.00,523.3,"Cc1c(C(=O)N(c2ccccc2)c2cnn(C)c2)cc(-c2cc3c(cc2C(=O)N2Cc4ccccc4C[C@H]2C)CN(C(=O)Cc2ccc(OCCN4CCOCC4)cc2F)CC3)n1C [Example 197, 5-[2-[2-[2-fluoro-4-(2-morpholinoethoxy)phenyl]acetyl]-7-[(3R)-3-methyl-3,4-dihydro-1H-isoquinoline-2-carbonyl]-3,4-dihydro-1H-isoquinolin-6-yl]-1,2-dimethyl-N-(1-methylpyrazol-4-yl)-N-phenyl-pyrrole-3-carboxamide]",0.0023
10.30,8.92,22.9,9.96,7.96,214.7,"COc1ncc(N(C(=O)c2cc(-c3cc4c(cc3C(=O)N3Cc5ccccc5C[C@H]3C)CN(C(=O)Cc3ccc(OCCN5CCOCC5)cc3F)CC4)n(C)c2C)c2ccccc2)cc1C#N [Example 202, N-(5-cyano-6-methoxy-3-pyridyl)-5-[2-[2-[2-fluoro-4-(2-morpholinoethoxy)phenyl]acetyl]-7-[(3R)-3-methyl-3,4-dihydro-1H-isoquinoline-2-carbonyl]-3,4-dihydro-1H-isoquinolin-6-yl]-1,2-dimethyl-N-phenyl-pyrrole-3-carboxamide]",0.0256
